The source of these data is patent US20250304549A1, “HYDROXYAMIDE DERIVATIVE AND USE THEREOF” (SICHUAN HUIYU PHARMACEUTICAL CO., LTD., priority 2022, published 2025).

Molecules are shown by their SMILES. Structures can show the parent of a compound that is named as a salt.

As usually defined, the IC50 is the concentration at which inhibition is half-maximal.

One test concerns the target LSD1 (Homo sapiens (Human), UniProt O60341). As to the kind of experiment: In vitro enzyme inhibition assay - LSD1 (HTRF). The class given is biochemical. In general terms: TR-FRET usually uses a lanthanide donor and a delayed reading to cut background.
A further test has as its system NCI-H1417 cells. The test is described as follows: In vitro cell inhibition assay - H1417 cell proliferation (CellTiter-Glo). The class given is cell-based. As to conditions: Homo sapiens, NCI-H1417, H1417 small cell lung cancer cell proliferation. A digest of the protocol: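 Cells exposed to 8 compound concentrations (5-fold dilutions) in BEGM with 10% FBS for 7 days at 37° C., 5% CO2. Viable cells measured by CellTiter-Glo luminescence; inhibition versus no-inhibitor and no-cell controls, IC50 fitted.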

A further test has as its system DU145 cells. As to the kind of experiment: In vitro cell inhibition assay - DU145 cell proliferation (CellTiter-Glo). The class given is cell-based. As to conditions: Homo sapiens, DU-145, Du145 prostate cancer cell proliferation. A digest of the protocol:
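DU145 cells were seeded at 1×10^3 per well, exposed next day to an 8-point, 5-fold compound dilution series in RPMI-640 with 10% FBS, and incubated 6 days at 37° C. Viable cells were measured by CellTiter-Glo luminescence, and IC50 was fitted from inhibition rates relative to no-inhibitor and no-cell controls.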

The subject of the next test is NCI-H69 cells. As to the kind of experiment: In vitro cell inhibition assay - NCI-H69 cell proliferation (CellTiter-Glo). The class given is cell-based. Conditions: Homo sapiens, NCI-H69, H69 small cell lung cancer cell proliferation. A digest of the protocol: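 Cells seeded at 1×10^3 per well and incubated overnight at 37° C., 5% CO2, then treated with 8-point 5-fold compound dilutions in RPMI-640 with 20% FBS for 7 days. Viable cells measured by CellTiter-Glo luminescence; IC50 fitted from inhibition relative to no-inhibitor and no-cell controls.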
Background: In ATP-based viability assays light output follows the ATP content of the culture.

In the next test the test system is NCI-H526 cells. As to the kind of experiment: In vitro cell inhibition assay - NCI-H526 cell proliferation (CellTiter-Glo). It counts as cell-based. As to conditions: Homo sapiens, NCI-H526, 120 h, H526 small cell lung cancer cell proliferation, 5 days. As to the method: 6. In Vitro Cell Inhibition Assay—NCI-H526 Cell Proliferation
The inhibitory effect of the compounds on cell proliferation was assessed by detecting the number of viable cells using CellTiter-Glo® reagent. NCI-H526 cells in the logarithmic growth phase were collected and inoculated into transparent bottom 96-well plates at a density 1×10^3 cells per well with 100 μL of medium, and incubated at 37° C., 5% CO2 overnight. The compounds were sequentially diluted in a 5-fold concentration gradient with DMSO to obtain 8 different concentrations. These were then diluted with RPMI-640 (containing 10% FBS) cell culture medium to obtain the compound working solution (2×), which was added to the cell supernatant at 100 μL per well. The incubation continued for 5 days at 37° C., 5% CO2. The plate was then removed and equilibrated at room temperature (25° C.) along with the CellTiter-Glo® mixing reagent for 10-30 minutes; 80 μL of the culture medium was carefully aspirated from each well, and 80 μL of CellTiter-Glo® reagent was added. The cells were thoroughly mixed with the CellTiter-Glo® mixing reagent using a microplate shaker for 2 min. and then incubated at room temperature for 10 min. The 96-well plate was subsequently placed on a multifunctional microplate reader to record the Luminescence values (RLU).
The inhibition rate was calculated using the following formula: […]
Note: ‘Negative’ refers to the group without inhibitors; ‘Blank’ refers to the group without cells.
The IC50 value was determined by fitting the inhibition rate by GraphPad Prism software.

In the next test the target is pan-HDAC. The test is described as follows: In vitro enzyme inhibition assay - HDAC (HDAC-Glo I/II), pan-HDAC. The class given is biochemical. The gist of the method:
(§1)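 The compound, serially diluted 5-fold in DMSO across 8 concentrations starting from a 1 mM stock, was made up as 4× working solutions in HDAC buffer. It was then tested in the HDAC-Glo I/II system, and luminescence was recorded. IC50 values came from variable-slope four-parameter curves of inhibition rate.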

The target in a further test is HDAC8 (Homo sapiens (Human), UniProt Q9BY41). As to the kind of experiment: In vitro enzyme inhibition assay - HDAC (HDAC-Glo I/II), HDAC8. It counts as biochemical. Conditions: read-out: HDAC IC50 (nM) HDAC 8. The gist of the method:
as §1

Chain of HDAC8 (Q9BY41 whole entry): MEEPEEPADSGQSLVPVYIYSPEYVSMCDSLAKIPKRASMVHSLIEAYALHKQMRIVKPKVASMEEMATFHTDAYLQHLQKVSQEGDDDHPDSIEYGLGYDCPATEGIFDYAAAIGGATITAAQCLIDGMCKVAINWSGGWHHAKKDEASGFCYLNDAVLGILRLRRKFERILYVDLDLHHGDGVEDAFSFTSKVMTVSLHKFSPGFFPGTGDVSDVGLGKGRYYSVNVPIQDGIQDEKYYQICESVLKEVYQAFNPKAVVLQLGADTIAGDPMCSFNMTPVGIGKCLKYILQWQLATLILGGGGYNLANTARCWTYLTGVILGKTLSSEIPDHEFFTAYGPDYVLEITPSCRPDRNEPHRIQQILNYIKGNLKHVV

For `COc1ccc(-c2cnc(N3CCC(NCc4ccc(/C=C/C(=O)NO)cc4)CC3)c(C#N)c2-c2ccc(C#N)c(F)c2)cc1O` [Example 37, (E)-3-(4-(((1-(3-cyano-4-(4-cyano-3-fluorophenyl)-5-(3-hydroxy-4-methoxyphenyl)pyridin-2-yl)piperidin-4-yl)amino)methyl)phenyl)-N-hydroxyacrylamide hydrochloride], the IC50 at LSD1 came out at 1.95 nM; with NCI-H1417 cells, 6.56 nM; with DU145 cells, 26 nM; in the test with NCI-H69 cells, 8.52 nM; in the test with NCI-H526 cells, 10.3 nM.

`COc1ccc(-c2cnc(N3CCC(NCc4ccc(/C=C/C(=O)NO)cc4)CC3)c(F)c2-c2ccc(C#N)c(F)c2)cc1O` [Example 76, (E)-3-(4-(((1-(4-(4-cyano-3-fluorophenyl)-3-fluoro-5-(3-hydroxy-4-methoxyphenyl)pyridin-2-yl)piperidin-4-yl)amino)methyl)phenyl)-N-hydroxyacrylamide formate]: the IC50 in the test with NCI-H1417 cells came out at 11.7 nM; in the test on DU145 cells it was 11 nM; in the test on NCI-H69 cells, 3.96 nM; in the test with NCI-H526 cells, 8.27 nM.

For `N#Cc1ccc(-c2c(-c3ccc(/C=C/C(=O)NO)c(O)c3)cnc(N3CCC(NCc4ccc(/C=C/C(=O)NO)cc4)CC3)c2C#N)cc1F` [Example 90], the IC50 turned out to be 42 nM in the test with NCI-H1417 cells, 45.3 nM in the test with DU145 cells, 6.49 nM with NCI-H69 cells and 34.6 nM in the test with NCI-H526 cells.

With `Cc1ccc(-c2cnc(N3CCC(NCc4cnc(/C=C/C(=O)NO)nc4)CC3)c(C#N)c2-c2ccc(C#N)c(F)c2)cc1O` [Example 148, (E)-3-(5-(((1-(3-Cyano-4-(4-cyano-3-fluorophenyl)-5-(3-hydroxy-4-methylphenyl)pyridin-2-yl)piperidin-4-yl)amino)methyl)pyrimidin-2-yl)-N-hydroxyacrylamide formate], the IC50 in the test on NCI-H1417 cells worked out at 2.64 nM; in the test with DU145 cells, 21.8 nM; with NCI-H69 cells, 13.1 nM; in the test with NCI-H526 cells, 6.22 nM.

As to `COc1ccc(-c2cnc(N3CCCC(NCc4ccc(/C=C/C(=O)NO)cc4)CC3)c(C#N)c2-c2ccc(C#N)c(F)c2)cc1O` (stereo not drawn) [Example 149, (E)-3-(4-(((1-(3-Cyano-4-(4-cyano-3-fluorophenyl)-5-(3-hydroxy-4-methoxyphenyl)pyridin-2-yl)azepan-4-yl)amino)methyl)phenyl)-N-hydroxyacrylamide formate], the half-maximal inhibitory concentration (IC50) worked out at 2.08 nM in the test with NCI-H1417 cells, 33.9 nM in the test on DU145 cells, 23.6 nM with NCI-H69 cells and 14.5 nM in the test with NCI-H526 cells.

On to `COc1ccc(-c2cnc(N3CCC(NCc4cnc(CCC(=O)NO)nc4)CC3)c(C#N)c2-c2ccc(C#N)c(F)c2)cc1O` [Example 152, 3-(5-((1-(3-Cyano-4-(4-cyano-3-fluorophenyl)-5-(3-hydroxy-4-methoxyphenyl)pyridin-2-yl)piperidin-4-yl)amino)methyl) pyrimidin-2-yl)-N-hydroxypropanamide hydrochloride], for which the IC50 came to 2.57 nM against pan-HDAC; 1.15 nM against LSD1; 4.91 nM in the test with NCI-H1417 cells; 223 nM in the test with DU145 cells; 208 nM in the test on NCI-H69 cells; 131 nM at HDAC8.

Consider `COc1ccc(-c2cnc(N3CCC(NC(=O)CCCCCCC(=O)NO)CC3)c(C#N)c2-c2ccc(C#N)c(F)c2)cc1O` [Example 177, N^1-(1-(3-Cyano-4-(4-cyano-3-fluorophenyl)-5-(3-hydroxy-4-methoxyphenyl)pyridin-2-yl)piperidin-4-yl)-N^8-hydroxyoctanediamide formate], for which the IC50 at pan-HDAC came out at 40.2 nM; on LSD1, 963 nM; in the test with NCI-H1417 cells it was 0.74 nM; in the test with DU145 cells it was 2030 nM; in the test on NCI-H69 cells, 639 nM; on HDAC8 it was 581 nM.
